# Measured values from the METLIN SMRT retention time set (Domingo-Almenara et al. 2019).
# Assay: gradient 5% acetonitrile 3 min, to 50% in 2 min, to 85% in 15 min, held 3 min, 100 µL/min
# Conditions: column: Zorbax Extend-C18 2.1 x 50 mm; eluents: water / acetonitrile, 0.1% formic acid
# Summary of the method: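 Values are retention times taken from adduct peaks that software picked and an analyst inspected. The pure standards were run as mixtures of ~100 molecules on HPLC linked to a quadrupole time-of-flight mass spectrometer, in positive and negative ionization mode. A Zorbax Extend-C18 column (2.1 × 50 mm, 1.8 μm) was used at 100 μL/min with water and acetonitrile, each including 0.1% formic acid.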
row,RP-LC retention time [s],SMILES
1,566,O=C(Cc1cc(-c2ccccc2)on1)NCCN1CCOCC1
2,599,CCOC(=O)C1=C(CN2CCN(CC)CC2)NC(=O)NC1c1ccc(OC)cc1 (stereo unspecified)
3,1020,CSc1cccc(NC(=O)Cn2cc(-c3ccccc3)c3ncn(C4CC4)c(=O)c32)c1
4,709,CO[C@@H]1COCC[C@@H]1N[C@@H]1CC[C@@](C(=O)N2CCc3ncc(C(F)(F)F)cc3C2)(C(C)C)C1
5,860,CCC(C)(C)NC(=O)Cn1nc(C)c2nn(-c3ccccc3)c(C)c2c1=O
6,695,Cc1cccc(NC(=O)C2(C)CCCCC(=O)N2)c1 (stereo unspecified)
7,736,O=C(CN1C(=O)COc2ccc(C(=O)N3CCN(c4ccc(F)cc4)CC3)cc21)N1CCCC1
8,634,CNC(=O)c1csc(NC(=O)Cc2ccc(OC)cc2)n1
9,896,CCC(=O)N(CCC1CCOC(C)(C)C1)Cc1ccc(OC)cc1 (stereo unspecified)
10,642,Cc1ccc(C(C)NC(=O)c2cn3c(n2)CCCC3)c(C)c1 (stereo unspecified)
11,685,COc1ccc(NC(=O)Cc2nnc(-c3ccc4ncccc4c3)o2)cc1
12,764,O=C(NCCc1cccs1)C1CCCN(c2ncnc3c2oc2ccccc23)C1 (stereo unspecified)
13,730,COc1ccc(C2Nc3ccccc3NC3=C2C(=O)CC(c2cccs2)C3)cc1OC (stereo unspecified)
14,635,CCCCC(=O)Nc1ccc2c(c1)nc(CN1CCN(S(C)(=O)=O)CC1)n2CC
15,707,COC(=O)c1nn(-c2ccc(C)cc2)c2c(=O)n(C)cnc12
16,1030,Cc1oc2ccn(Cc3ccc(F)cc3)c(=O)c2c1C(=O)NCc1cccs1
17,582,Cc1nnc(CNC(=O)c2cc(-c3cccs3)[nH]n2)o1
18,1260,CC1CCCN(S(=O)(=O)c2ccc(C(=O)Nc3nc4c(s3)CCc3ccccc3-4)cc2)C1 (stereo unspecified)
19,813,CN1C(=O)c2cc(C(=O)NCCCc3ccccc3)nn2CC1(C)C(=O)NCc1ccc(F)cc1 (stereo unspecified)
20,668,CCc1ccc(NC(=O)NCc2ccnc(N3CCSCC3)c2)cc1
21,832,Cc1cc(Cl)ccc1NC(=O)C1CCCN1S(=O)(=O)c1cc2c(cc1C)NC(=O)CO2 (stereo unspecified)
22,814,Cn1c(=O)n(C)c2cc(S(=O)(=O)C3CCCCC3)c(NC(=O)C3CC3)cc21

row,RP-LC retention time [s],SMILES
1,627,CCN1CCN(C2CCN(C(=O)c3ccco3)CC2)C1=O
2,619,CN1CCN(C(=O)c2cc(-c3ccccc3)cn2C)CC1
3,920,Cc1oc2ncnc(N3CCCC(C(=O)NCc4cccc(Cl)c4)C3)c2c1C (stereo unspecified)
4,645,O=C(c1n[nH]c2c1CCCC2)N1CCn2c(nnc2-c2ccccc2)C1
5,866,Cc1noc(-c2cc(=O)n(CC(=O)NCc3ccccc3Cl)c3ccccc23)n1
6,862,CC(C)(CSc1nnnn1-c1ccccc1)NS(=O)(=O)c1ccccc1
7,807,O=C(NC1CCN(c2cc(-c3ccc(F)cc3)[nH]n2)C1)c1ccc(F)c(F)c1 (stereo unspecified)
8,700,CCCS(=O)(=O)N1CCC(N2C(=O)[C@H](OC)[C@@H]2c2ccncc2)CC1
9,937,CC(=O)N1CCCSc2ccc(S(=O)(=O)N(C)c3ccc(C)cc3)cc21
10,698,CC(C)CNC(=O)C1CC(=O)N(c2ccc3c(c2)CCN3C(=O)C2CC2)C1 (stereo unspecified)
11,819,O=C(Cn1nnc2ccccc2c1=O)NCCc1c[nH]c2ccc(Cl)cc12
12,642,Cc1ccc(NC(=O)Cc2c(C(=O)O)c(C)cn2C)nc1
13,836,Cc1cccc(C(=O)N2CCc3cc(CNS(=O)(=O)c4ccc5c(c4)CC(=O)N5C)ccc32)c1
14,740,O=C(C1=CN(c2ccccc2F)c2cc(F)ccc2S1(=O)=O)N1CCOCC1
15,741,CCn1cnc(S(=O)(=O)N2CCC(C(=O)Nc3ccc(C)cc3C)CC2)c1
16,759,COc1ccc(CNC(=O)N2CCC(n3c(-c4ccco4)nc4cccnc43)C2)cc1 (stereo unspecified)
17,646,Cc1ccccc1NS(=O)(=O)c1cc2n(c1)CCCNC2=O
18,962,C=CCN(CC=C)C(=O)Nc1cc(OC)ccc1OC
19,839,Cc1[nH]c(C(=O)N2CCC(CC(=O)NCc3cccc(F)c3)CC2)c(C)c1C(=O)OC(C)C
20,814,COc1ccc(-c2cc(C(=O)NCCc3c[nH]c4ccccc34)[nH]n2)cc1
21,1040,O=c1ccn(-c2ccc(Cl)cc2)nc1-c1nc(-c2ccc(Cl)cc2)no1
22,604,Cc1ccc(CC(=O)Nc2ccc3nc(N4CCN(CC(=O)N(C)C)CC4)cc(C(=O)O)c3c2)cc1

row,RP-LC retention time [s],SMILES
1,850,O=C(C1CCCN(c2nccnc2Sc2ccccc2)C1)N1CCOCC1 (stereo unspecified)
2,674,CCCn1cnc2cc(CNC(=O)c3ccc(C(F)(F)F)cc3)ccc21
3,722,COCc1nnc(-c2ccc3c(c2)OCO3)o1
4,781,CC(C)c1ccc(CNC(=O)C2CCCN(c3cc(=O)n(C)c(=O)n3C)C2)cc1 (stereo unspecified)
5,650,CCCNC(=O)CCNc1c(-c2cccc(F)c2)nc2cnccn12
6,1160,COc1ccccc1-c1noc(-c2nnn(Cc3nc(-c4cccc(C)c4)oc3C)c2C)n1
7,795,COc1ccc(CNC(=O)c2ccc3c(c2)NC(=O)C2CCCCN32)c(OC)c1 (stereo unspecified)
8,805,Cc1ccc(CNC(=O)C2(C)CCC(=O)N2CCc2c[nH]c3ccccc23)cc1 (stereo unspecified)
9,684,CCOC(=O)C1CCCN(C(=O)Cn2cnc(-c3cccs3)cc2=O)C1 (stereo unspecified)
10,839,Cc1cc(C)n(-c2ccnc(N3CCC(C(=O)NCCc4ccccc4)CC3)n2)n1
11,986,CCN(c1cccc(C)c1)S(=O)(=O)c1ccc2c(c1)N(C(C)=O)CCCS2
12,1040,O=C(Nc1ccc(Br)cc1)N(c1ccccc1)c1ccccc1
13,574,CCN(CC)C(=O)c1cnc2nc(C)ccc2c1Nc1ccc(S(N)(=O)=O)cc1
14,787,CCN(CC)C(=O)c1ccc2c(c1)nnn2CCNC(=O)Nc1ccc(Br)cc1F
15,592,CS(=O)(=O)c1ccc(CC(=O)N2CC(Cc3nncn3CC3CC3)C2)cc1
16,792,O=C(NC1CCc2ccccc21)C1CCN(C(=O)c2ncn3c2COC(c2ccc(F)cc2)C3)CC1 (stereo unspecified)
17,688,Cc1cc(N2CCN(C(=O)Nc3ccc(C)c(Cl)c3)CC2)nc(N2CCOCC2)n1
18,648,CC(C)n1nnc2cc(C(=O)N(C)C)ccc21
19,1130,CCCn1cc(C(=O)Nc2cccc(OC)c2)c(=O)c2ccc(C)nc21
20,540,COc1ccc(C(O)CN2CCN(C3CCCCC3)CC2)cc1 (stereo unspecified)
21,1090,COc1ccc(N2CCN(c3cc(SCC(=O)Nc4ccc(Cl)cc4F)ncn3)CC2)cc1

row,SMILES,RP-LC retention time [s]
1,CN1C[C@@H](NS(=O)(=O)N(C)C)C[C@@H]2c3cccc4c3c(cn4C)C[C@H]21,698
